Series [1] in a line: Apparent volume of distribution in ICR mouse at 10 mg/kg, iv administered as single dose by LC-MS/MS analysis. The class given is ADME, organism-based. Conditions: in vivo, read-out: Vz.
The target of series [2] is T1, Tyrosine-protein kinase JAK3 (Homo sapiens, UniProt P52333).
T1 sequence (P52333 whole entry): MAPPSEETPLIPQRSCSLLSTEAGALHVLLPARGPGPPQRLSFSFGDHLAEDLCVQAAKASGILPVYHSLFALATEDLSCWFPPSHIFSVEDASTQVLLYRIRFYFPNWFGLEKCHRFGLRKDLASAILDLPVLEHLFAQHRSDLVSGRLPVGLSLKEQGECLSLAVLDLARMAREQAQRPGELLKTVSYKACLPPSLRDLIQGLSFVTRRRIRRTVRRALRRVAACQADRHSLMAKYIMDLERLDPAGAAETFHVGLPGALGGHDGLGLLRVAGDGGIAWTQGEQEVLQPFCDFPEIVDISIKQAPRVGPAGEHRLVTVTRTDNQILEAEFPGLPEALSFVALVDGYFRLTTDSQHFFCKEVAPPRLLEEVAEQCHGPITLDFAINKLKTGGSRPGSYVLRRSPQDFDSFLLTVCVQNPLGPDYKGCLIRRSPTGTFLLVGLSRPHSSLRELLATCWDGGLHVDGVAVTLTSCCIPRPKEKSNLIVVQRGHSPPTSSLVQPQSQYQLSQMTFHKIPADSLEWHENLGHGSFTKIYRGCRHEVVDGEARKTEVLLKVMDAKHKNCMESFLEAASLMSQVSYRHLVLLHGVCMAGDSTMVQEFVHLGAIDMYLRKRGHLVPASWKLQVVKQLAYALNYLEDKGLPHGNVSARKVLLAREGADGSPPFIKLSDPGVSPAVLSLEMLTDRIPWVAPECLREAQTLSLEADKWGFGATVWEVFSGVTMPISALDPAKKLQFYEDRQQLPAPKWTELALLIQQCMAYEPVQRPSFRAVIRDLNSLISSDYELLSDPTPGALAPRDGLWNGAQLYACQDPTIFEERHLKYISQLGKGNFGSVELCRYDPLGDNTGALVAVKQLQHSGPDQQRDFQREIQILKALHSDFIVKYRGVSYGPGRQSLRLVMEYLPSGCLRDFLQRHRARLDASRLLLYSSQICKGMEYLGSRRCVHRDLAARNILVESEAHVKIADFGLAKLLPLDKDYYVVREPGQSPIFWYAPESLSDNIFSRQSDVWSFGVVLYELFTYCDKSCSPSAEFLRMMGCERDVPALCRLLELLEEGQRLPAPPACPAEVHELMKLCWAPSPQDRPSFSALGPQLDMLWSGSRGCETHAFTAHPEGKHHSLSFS

Series [3] can be described thus: MRT (0 to t) in ICR mouse at 10 mg/kg, iv administered as single dose by LC-MS/MS analysis. The class given is ADME, organism-based. Particulars: in vivo.
Series [4] concerns the target TEK (Angiopoietin-1 receptor) (Homo sapiens, UniProt Q02763). Briefly: Inhibition of recombinant human GST-tagged TEK (817 to 1101 residues) expressed in baculovirus expression system at 100 nM using Tyr 05 as substrate incubated for 1 hr in presence of ATP by Z'-LYTE assay relative to control. Conditions: probe Tyr 05.
Series [5] has as its target T2, BMX (Cytoplasmic tyrosine-protein kinase BMX) (Homo sapiens, UniProt P51813).
T2 sequence (P51813 whole entry): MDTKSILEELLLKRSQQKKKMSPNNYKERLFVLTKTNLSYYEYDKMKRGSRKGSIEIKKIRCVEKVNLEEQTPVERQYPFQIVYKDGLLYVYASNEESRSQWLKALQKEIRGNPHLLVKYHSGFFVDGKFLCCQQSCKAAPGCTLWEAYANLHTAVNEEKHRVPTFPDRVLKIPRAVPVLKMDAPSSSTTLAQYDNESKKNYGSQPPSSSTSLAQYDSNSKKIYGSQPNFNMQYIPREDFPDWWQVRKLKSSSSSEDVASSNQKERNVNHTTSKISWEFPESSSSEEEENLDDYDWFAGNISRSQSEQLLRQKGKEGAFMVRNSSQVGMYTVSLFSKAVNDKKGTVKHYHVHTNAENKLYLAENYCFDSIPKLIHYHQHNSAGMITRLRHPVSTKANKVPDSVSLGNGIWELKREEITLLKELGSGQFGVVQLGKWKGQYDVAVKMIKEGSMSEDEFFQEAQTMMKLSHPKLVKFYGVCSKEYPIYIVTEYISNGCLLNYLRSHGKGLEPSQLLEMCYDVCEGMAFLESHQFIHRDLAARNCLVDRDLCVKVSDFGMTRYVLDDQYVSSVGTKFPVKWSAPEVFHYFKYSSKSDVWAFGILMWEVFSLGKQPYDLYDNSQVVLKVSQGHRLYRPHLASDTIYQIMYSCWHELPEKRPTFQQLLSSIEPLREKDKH
Kind of series: Inhibition of recombinant human His-tagged full length BMX expressed in baculovirus expression system at 100 nM using Tyr 01 as substrate incubated for 60 mins by Z'-Lyte assay relative to control. Conditions: probe Tyr 01.

Another series deals with Mus musculus. Kind of series: Immunosuppressive activity in Balb/c mouse model of oxazolone-induced delayed type hypersensitivity assessed as appearance of well structured tissue architecture at 30 mg/kg, po measured after 7 days by H and E staining based histopathological analysis. It counts as functional, organism-based. Conditions: time 7.0 day.
Series [6] addresses T3, Tyrosine-protein kinase JAK3 (Homo sapiens) (UniProt P52333).
T3 sequence (whole entry): T1 sequence (P52333 whole entry)
Kind of series: Inhibition of recombinant human GST-tagged JAK3 catalytic domain (781 to 1124 residues) expressed in baculovirus expression system using Tyr06 peptide as substrate at 100 nM incubated for 1 hr by Z'lyte assay relative to control.

A short description of series [7]: Cytotoxicity against IL-4-treated mouse T cells assessed as reduction in cell viability at 10 uM measured after 72 hrs by MTS assay. It counts as cell-based.

Activity calls are given as the source filed them. No cut-off for these calls is given here.

Sequence of TEK (Angiopoietin-1 receptor) (Q02763 whole entry, the tested form may be a part): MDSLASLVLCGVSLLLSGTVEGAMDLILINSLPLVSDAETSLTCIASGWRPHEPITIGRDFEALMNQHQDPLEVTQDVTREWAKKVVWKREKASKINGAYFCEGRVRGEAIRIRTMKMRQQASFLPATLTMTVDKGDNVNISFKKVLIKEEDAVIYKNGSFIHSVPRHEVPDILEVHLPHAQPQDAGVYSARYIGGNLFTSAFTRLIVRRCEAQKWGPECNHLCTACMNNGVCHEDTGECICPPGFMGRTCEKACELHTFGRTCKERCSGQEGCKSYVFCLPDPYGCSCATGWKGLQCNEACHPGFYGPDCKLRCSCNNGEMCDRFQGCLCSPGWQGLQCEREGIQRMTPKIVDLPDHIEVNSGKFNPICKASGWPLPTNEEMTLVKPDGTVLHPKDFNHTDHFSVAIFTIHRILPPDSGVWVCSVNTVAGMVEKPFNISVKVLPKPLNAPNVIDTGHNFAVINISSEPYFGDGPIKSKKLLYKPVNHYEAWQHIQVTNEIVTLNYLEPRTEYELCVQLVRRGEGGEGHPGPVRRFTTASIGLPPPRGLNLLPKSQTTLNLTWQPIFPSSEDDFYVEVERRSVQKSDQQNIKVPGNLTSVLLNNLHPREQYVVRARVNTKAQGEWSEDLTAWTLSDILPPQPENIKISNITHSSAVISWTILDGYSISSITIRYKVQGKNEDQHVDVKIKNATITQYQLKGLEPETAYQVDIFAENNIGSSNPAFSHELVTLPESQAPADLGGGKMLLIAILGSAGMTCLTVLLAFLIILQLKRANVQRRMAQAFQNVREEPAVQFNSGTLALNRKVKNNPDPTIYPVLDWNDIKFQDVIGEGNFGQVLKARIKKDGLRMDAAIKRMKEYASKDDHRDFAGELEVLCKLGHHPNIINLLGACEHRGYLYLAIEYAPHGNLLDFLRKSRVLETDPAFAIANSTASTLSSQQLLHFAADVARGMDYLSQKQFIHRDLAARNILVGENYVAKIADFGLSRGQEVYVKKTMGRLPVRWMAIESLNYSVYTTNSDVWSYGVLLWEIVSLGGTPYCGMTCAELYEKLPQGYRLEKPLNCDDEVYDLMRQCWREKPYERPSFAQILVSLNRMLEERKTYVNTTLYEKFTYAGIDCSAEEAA

For `C=CC(=O)Nc1ccc(-c2ccnc(Nc3ccc(N4CCOCC4)cc3)n2)cc1`, the Vd in series [1] was found to be 8.36 L/kg. In addition, the IC50 in series [2] turned out to be 1.7 nM. In series [3], this compound gave an MRT last of 43.8 min. The inhibition at 1 h, 0.1 µM came out at 29.5% in series [4] and 3.7% in series [5]. The outcome in the series with Mus musculus was Active. For the same compound, in series [6], the inhibition is 100%. Besides, in series [7], the Activity result is recorded as “Non-Toxic”.
